Reference: paper PMC9743128, “Phenotype-based screening rediscovered benzopyran-embedded microtubule inhibitors as anti-neuroinflammatory agents by modulating the tubulin–p65 interaction” (Experimental & Molecular Medicine, 2022)
Read-outs that look alike come from different tables or passages of the source.

Experiments:
[1] = system: LPS-mediated NO release in BV-2 microglial cells; test: Griess assay: cellular NO release after LPS treatment; type: cell-based, murine; conditions: for IC50: 100 ng/mL LPS, 24 h
Description: Cellular secretion of nitric oxide (NO) was quantified with the Griess assay. BV-2 cells were seeded on a clear flat bottom TC-treated 96-well plate (Corning; #3598) and sealed with breathable sealing tape (Axygen; BF-400-S). After 18 h, BV-2 cells were treated with compounds in the absence or presence of 100 ng/mL LPS (Sigma; L4391). After 24 h, 50 μL of the cell culture media was mixed with the same volume of Griess reagent {0.1% naphthylethylenediamine dihydrochloride (Sigma; #222488) and 1% sulfanilamide (Sigma; S9251) in 4% phosphoric acid (Daejung; #6532-4405)}. Absorbance at 550 nm was measured using a microplate reader (BioTek; Synergy). Sodium nitrite (Alfa Aesar; A18668) was used for standard curve generation.
Microglia are tissue-resident macrophages involved in CNS immunosurveillance[3],[39]. Microglial activation induces proinflammatory cytokine tumor necrosis factor α (TNF-α) expression, resulting in neural toxicity[5],[6]. Therefore, the inhibition of microglial activation is critical for regulating neuroinflammation. To discover anti-neuroinflammatory NCEs, we monitored the cellular release of nitric oxide (NO) in response to lipopolysaccharide (LPS) treatment as a mimic of pathogenic activation of innate immune systems upon compound treatment in BV-2 cells using the Griess assay.

[2] = system: p65 nuclear translocation in J774A.1 and RAW264.7 cells; test: p65 nuclear translocation by immunofluorescence staining; type: cell-based, murine; conditions: 10 μM for 1 h, then LPS; LPS alone 80%, basal 40%
Description: To monitor p65 translocation, J774A.1 cells were treated with compounds for 1 h, followed by LPS (100 ng/ml) treatment for 30 min. The cells were fixed with 4% paraformaldehyde (Sigma; #158127) in PBS (w/v) for 30 min at room temperature. After washing with 1× PBS (Welgene; ML008-02) three times, the fixed cells were permeabilized with PBS containing 0.1% Triton X-100 for 10 min. The cells were washed with 1× PBS three times and then blocked with 4% bovine serum albumin (MP Biomedicals; #0216006980) in PBS (w/v) for 1 h. The cells were incubated with mouse anti-p65 antibody (Santa Cruz; sc-8008, 1:200 diluted in 1% BSA–PBS) at 4 °C overnight and washed with PBS three times. FITC-labeled goat anti-mouse IgG antibody (Abcam; ab6785, 1:200 diluted in 1% BSA–PBS) was added to the sample and incubated for 1 h at room temperature. The remaining antibodies were finally washed three times with PBS. Nuclei were stained with Hoechst 33342 (Thermo; #62249). The cellular p65 proteins were imaged by fluorescence microscopy (GE Healthcare; Delta Vision) and quantified by the line profiling method.
During activation of the NF-κB signaling pathway, IκB is phosphorylated and degraded by proteasomes. The released p65 from IκB is translocated to the nucleus, inducing the transcription of target genes for inflammatory responses. Therefore, we monitored the translocation of p65 upon SB26019 treatment in J774A.1 and RAW264.7 murine macrophage cells stained with fluorescently labeled antibodies. […]

in vitro = conditions: mouse
[3] = system: TNF-α secretion in BV-2 cells; test: TNF-α ELISA of culture medium after LPS; type: cell-based, murine; conditions: 10 μM
Description: BV-2 and RAW264.7 cells were treated with compounds in the absence or presence of LPS (100 ng/ml). After 24 h, TNF-α levels in the culture medium were measured using a TNF-α ELISA kit (R&D Systems; DY410) according to the manufacturer’s protocol. Briefly, capture antibodies were coated on 96-well Maxisorp Nunc-Immuno plates (Thermo; #439454) for 1 h and washed with PBS containing 0.05% Tween-20 (PBST) three times. The plates were blocked with 1% BSA-PBS for 1 h and washed with PBST three times. Culture medium was added to the 96-well plate for 1 h and washed with PBST three times. Biotinylated detection antibody was added to the 96-well plate for 1 h and washed with PBST three times. Streptavidin–horseradish peroxidase (HRP) was added to the plate for 20 min and washed with PBST three times. After 20 min of incubation with TMB substrate (Thermo; #002023), TMB oxidation was stopped by adding 2 N H2SO4. The absorbance at 450 nm, 540 nm, and 570 nm was measured using a microplate reader (BioTek; Synergy). The following formula was used to calculate the net signal: OD450nm–(OD540nm + OD570nm)/2.
Fig. 2 SB26019 has anti-inflammatory activity via the accumulation of tubulin monomers. SB26019 (10 μM for 6 h) regulated the mRNA levels (a) and protein levels (b) of downstream genes of NF-κB in BV-2 murine microglial cells more efficiently than the other known tubulin modulators (n = 3). c Both tubulin modulators (10 μM for 6 h) and transient Flag-tagged α-tubulin overexpression increased the total amount of tubulin monomers. d Quantification of the amount of tubulin polymer vs. monomer in (c). Tubulin modulators (10 μM for 6 h) and transient Flag-tagged α-tubulin overexpression proportionally regulated the NF-κB signaling pathway at the mRNA (e) and protein levels f in RAW264.7 murine macrophage cells (n = 3). Data are presented as the mean ± SD (ns, not significant, p > 0.05; *p < 0.05; **p < 0.01; ***p < 0.001).

[4] = Cell viability assay (EZ-Cytox); conditions: mouse, BV-2 microglial cells
tubulin [5] = target: T1, tubulin (Homo sapiens, UniProt P07437+P68363); test: Cellular thermal shift assay (CETSA); type: cell-based
T1 construct: endogenous in cells

BV-2 cells = test: Cell viability assay (EZ-Cytox); conditions: 10 μM
tubulin [6] = target: T2, tubulin (Sus scrofa, UniProt P02550+P02554); test: Tubulin polymerization assay; type: biochemical; conditions: 1 μM compound
T2 construct: purchased Cytoskeleton BK006P
Description: The tubulin polymerization inhibition efficacy of the compounds was measured by a tubulin polymerization assay kit (Cytoskeleton; BK006P) according to the manufacturer’s manual. Absorbance at 340 nm was measured to observe the formation of tubulin polymers using a microplate reader (Biotek; Synergy).
Supplementary Fig. 4. Tubulin polymerization inhibition by compounds 1–13 (1 μM). In the presence or absence of compounds, tubulin was incubated to polymerize at room temperature. Absorbance at 340 nm was measured in a time-dependent manner for monitoring the rate of tubulin polymerization.
Supplementary Table 2. Tubulin polymerization inhibition of the focused library. Tubulin was incubated with each compound (1 μM) and the tubulin polymerization inhibition was monitored. Vmax was calculated from tubulin polymer generation curve data of Supplementary Fig. 3.

[7] = Mus musculus, BV-2 cells, LPS, read-out: % NO inh. at 10 μM

T1 sequence (P07437 whole entry): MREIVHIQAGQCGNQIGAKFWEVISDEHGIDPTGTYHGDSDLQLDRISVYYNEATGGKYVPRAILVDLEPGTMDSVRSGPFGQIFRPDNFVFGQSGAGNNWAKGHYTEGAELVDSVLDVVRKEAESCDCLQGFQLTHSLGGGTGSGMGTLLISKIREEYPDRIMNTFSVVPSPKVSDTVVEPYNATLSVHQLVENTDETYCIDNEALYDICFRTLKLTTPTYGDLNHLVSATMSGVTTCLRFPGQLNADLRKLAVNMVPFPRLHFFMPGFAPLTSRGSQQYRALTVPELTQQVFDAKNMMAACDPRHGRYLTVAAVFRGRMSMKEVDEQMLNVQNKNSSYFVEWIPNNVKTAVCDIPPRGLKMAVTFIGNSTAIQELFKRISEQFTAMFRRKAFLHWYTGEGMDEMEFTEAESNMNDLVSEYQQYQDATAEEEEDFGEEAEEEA
T1 sequence (P68363 whole entry): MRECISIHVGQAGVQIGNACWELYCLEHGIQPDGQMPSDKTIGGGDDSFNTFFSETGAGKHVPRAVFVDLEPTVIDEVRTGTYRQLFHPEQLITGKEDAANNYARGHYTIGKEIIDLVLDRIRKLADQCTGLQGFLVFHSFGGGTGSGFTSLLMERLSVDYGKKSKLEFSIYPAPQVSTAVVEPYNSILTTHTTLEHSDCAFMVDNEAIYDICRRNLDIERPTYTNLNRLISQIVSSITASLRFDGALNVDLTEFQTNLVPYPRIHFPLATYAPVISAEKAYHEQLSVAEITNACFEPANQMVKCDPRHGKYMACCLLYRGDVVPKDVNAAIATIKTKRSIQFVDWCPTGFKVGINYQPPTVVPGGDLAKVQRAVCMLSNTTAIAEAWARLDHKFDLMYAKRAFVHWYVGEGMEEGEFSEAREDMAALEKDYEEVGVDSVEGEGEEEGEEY
T2 sequence (P02554 whole entry): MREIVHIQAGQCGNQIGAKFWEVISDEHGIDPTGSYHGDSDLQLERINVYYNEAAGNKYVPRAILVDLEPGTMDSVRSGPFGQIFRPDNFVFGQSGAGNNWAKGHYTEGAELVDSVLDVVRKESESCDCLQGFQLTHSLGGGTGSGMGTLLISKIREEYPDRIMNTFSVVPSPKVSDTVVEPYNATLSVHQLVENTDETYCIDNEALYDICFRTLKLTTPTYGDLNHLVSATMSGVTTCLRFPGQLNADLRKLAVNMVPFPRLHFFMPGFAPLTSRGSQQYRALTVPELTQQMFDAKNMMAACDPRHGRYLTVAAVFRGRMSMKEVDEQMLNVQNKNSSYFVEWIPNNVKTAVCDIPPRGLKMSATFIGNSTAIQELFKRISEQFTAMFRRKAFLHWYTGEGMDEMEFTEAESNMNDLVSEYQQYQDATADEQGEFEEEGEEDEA
T2 sequence (P02550 whole entry): as the sequence (P68363 whole entry) above, with L136S, S232G, I265A, S340T, Q358E counted along it

Row | Structure (SMILES) | IC50 ([1]; BV-2 cells) | % NO inh. at 10 μM ([1]; BV-2 cells, LPS) | % Viab. at 10 μM (BV-2 cells) | also measured
1 | COc1cc2c(c(OC)c1OC)-c1ccc(OC)c(=O)cc1[C@@H](NC(C)=O)CC2 [Colchicine] | – | – | – | inhibition at 10 µM [1, 7]: 51.8%; p65 nuclear translocation in the presence of LPS [2]: < 60%; viability at 10 µM (in vitro): 114%; TNF-α levels compared to that of the DMSO control [3]: < 50%
2 | COc1ccc2c(c1O)OC(C)(C)C=C2c1ccc(Cl)cc1C [Compound 1] | – | – | – | inhibition at 10 µM [1, 7]: 69.4%; inhibition at 10 µM ([1]; Mus musculus, BV-2 microglial cells, read-out: LPS-mediated NO release inhibited down to): 70%; IC50 ([1]; Mus musculus, BV-2 cells): 5.22 µM; viability at 10 µM [4]: 102%; Thermal shift of tubulin in CETSA (tubulin [5]): slight thermal sensitization
3 | COc1ccc2c(c1O)OC(C)(C)C=C2c1cccc(-c2ccccc2)c1 [Compound 11] | 6.71 µM | 61.6% | 106.1% | –
4 | CCOC(=O)CCC1(C)C=C(c2ccc(Cl)cc2C)c2ccc(OC)c(O)c2O1 (stereo not drawn) [Compound 12] | 7.45 µM | 72.3% | 105.6% | –
5 | CCOC(=O)CCC1(C)C=C(c2cccc3c2oc2ccccc23)c2ccc(OC)c(O)c2O1 (stereo not drawn) [Compound 13] | 1.79 µM | 101.2% | 111.4% | –
6 | COC(=O)Nc1nc2ccc(C(=O)c3cccs3)cc2[nH]1 [Nocodazole, reference compound] | – | – | – | inhibition at 10 µM [1, 7]: 54.9%; IC50 ([1]; Mus musculus, BV-2 cells): 13.4 µM; p65 nuclear translocation in the presence of LPS [2]: < 60%; viability at 10 µM [4]: 93.8%; Vmax of microtubule polymerization compared to DMSO control (tubulin [6]): reduced Vmax; TNF-α levels compared to that of the DMSO control [3]: < 50%

Now from value to molecule, other results behind:

Row | IC50 ([1]; BV-2 cells) | Structure (SMILES) | % NO inh. at 10 μM ([1]; BV-2 cells, LPS) | % Viab. at 10 μM (BV-2 cells) | also measured
7 | 5.94 µM | COc1ccc2c(c1O)OC(C)(C)C=C2c1ccc(F)cc1C [Compound 2] | 65.3% | 105.3% | –
8 | 22.3 µM | COc1ccc2c(c1O)OC(C)(C)C=C2c1ccc(F)cc1 [Compound 3] | 9.9% | 88.0% | –
9 | 7.19 µM | COc1ccc2c(c1O)OC(C)(C)C=C2c1ccccc1C [Compound 4] | 73.3% | 106.1% | –
10 | 9.89 µM | COc1ccc2c(c1O)OC(C)(C)C=C2c1cc(C)ccc1C [Compound 5] | 46.9% | 99.7% | –
11 | 5.09 µM | COc1ccccc1C1=CC(C)(C)Oc2c1ccc(OC)c2O [Compound 6] | 87.1% | 113.8% | –
12 | 5.01 µM | COc1ccc2c(c1O)OC(C)(C)C=C2c1cccc2cccnc12 [Compound 7] | 98.0% | 101.5% | –
13 | 1 µM | COc1ccc2c(c1O)OC(C)(C)C=C2c1cccc2c1sc1ccccc12 [Compound 9] | 90.0% | 103.6% | –
14 | 13.1 µM | COc1ccc2c(c1O)OC(C)(C)C=C2c1cccc2c1Sc1ccccc1S2 [Compound 10] | 36.8% | 102.1% | –
